{"source": "patent US10696661B2", "about": "“Compounds” (Exonate Limited, priority 2015, dated 2020)", "molecules": {"B1": {"name": "Lucentis: a novel humanized anti-VEGF antibody fragment (antibody, chains of the INN, looked up, V domains shown)", "VH": "EVQLVESGGGLVQPGGSLRLSCAASGYDFTHYGMNWVRQAPGKGLEWVGWINTYTGEPTYAADFKRRFTFSLDTSKSTAYLQMNSLRAEDTAVYYCAKYPYYYGTSHWYFDVWGQGTLVTVSS", "VL": "DIQLTQSPSSLSASVGDRVTITCSASQDISNYLNWYQQKPGKAPKVLIYFTSSLHSGVPSRFSGSGSGTDFTLTISSLQPEDFATYYCQQYSTVPWTFGQGTKVEIK", "modifications": "Fab", "notes": "a novel humanized anti-VEGF antibody fragment"}}, "key": {"[1]": {"system": "laser-induced choroidal neovascularisation (CNV)", "assay": "Laser-induced choroidal neovascularisation (CNV) in mice, topical eye drops", "type": "in vivo", "conditions": "mouse, eye drop, FIG. 4-7", "protocol": "6-8 week-old female C57/B6 mice were anesthetized with an intraperitoneal injection of a mixture of 50 mg/kg ketamine and 0.5 mg/kg medetomidine. The pupils were immediately dilated by topical (eyedrop) application with a dilator such as 5% phenylephrine hydrochloride and 1% tropicamide. Four photocoagulation lesions were delivered with a green Merilas 532a laser (450 mW, 130 ms) between the “large” retinal vessels in clear space with no vessels in a peripapillary distribution at a distance of 1-2 disc-diameters in each eye. Only clean laser lesions with a subretinal bubble at the time of treatment were included in the study. Immediately following laser photocoagulation the animals were given topical eye drops of candidate compounds twice daily (10 μl, eyes held for 30 seconds to prevent animal wiping drop away).\nAfter one week, mice were anesthetized with an intraperitoneal injection of a mixture of 50 mg/kg ketamine and 0.5 mg/kg medetomidine. The pupils were immediately dilated by topical (eyedrop) application with a dilator such as 5% phenylephrine hydrochloride and 1% tropicamide. Mice were administered an intraperitoneal injection of sodium fluorescein (10%). Phase contrast and green fluorescent fundus images were taken with an angiography microscope and camera with each lesion in focus. […]"}, "[2]": {"system": "VEGF165b and VEGF165 protein in retinal pigmented epithelial cells", "assay": "VEGF isoform specific ELISA in retinal pigmented epithelial cells", "type": "cell-based, human", "conditions": "relative to DMSO control, FIG. 3", "protocol": "96-well clear microplate (high sensitivity thermo immulon or costar 9018) were coated with 100 μL of 10 μg/ml VEGFxxxb or 0.25 μg/ml anti-hVEGF165a per well. The plate was sealed with parafilm and incubated overnight on the shaker at room temp. Each well was aspirated and washed with Wash Buffer (200 μl PBS-Tween 0.05%), two times for a total of three washes. After the last wash, remaining Wash Buffer was removed by inverting the plate and blotting it against clean paper towels. Plates were blocked by adding 100 μl of Reagent Diluent (1% BSA/PBS) to each well and incubated at room temp on a shaker for 2 hours. The aspiration/wash step was repeated. 100 μL of standards or samples in 1% BSA/PBS were added to each well, covered with parafilm and incubated 2 hours at room temperature. The aspiration/wash was repeated and 100 μL of 100 ng/ml Detection Antibody (BAF293), diluted in Reagent Diluent, was added to each well which were covered with parafilm and incubated 2 hours at room temp. The aspiration/wash was repeated and 100 μL of the working dilution of Streptavidin-HRP (1:200 dilution) was added to each well. […] The optical density of each well was measured immediately, using a microplate reader set to 450 nm.\nTo determine whether these compounds could switch splicing of VEGF isoforms, VEGF was measured in retinal pigmented epithelial cells by isoform specific ELISA."}, "VEGF165b and VEGF165": {"system": "VEGF165b and VEGF165", "conditions": "cited from earlier work"}, "[3]": {"system": "VEGF-A165a / VEGF-A165b mRNA in primary RPE cells and ARPE-19 cells", "assay": "qRT-PCR and conventional PCR of VEGF-A alternative splicing", "type": "cell-based, human", "conditions": "FIGS. 8 and 9", "excerpt": "Primary human retinal epithelial cells were lysed in Trizol reagent and mRNA was extracted using the method of Chomczynski and Sacchi, or using an RNeasy RNA extraction kit (Qiagen, UK). mRNA was reverse transcribed using Thermoscript reverse transcriptase (Fisher Scientific, UK). The cDNA was amplified using primers designed to amplify the region spanning the proximal and distal splice sites in human VEGF-A165a and VEGF-A165b, to amplify both isoforms and differentiate between them due to the fact that the exon 8b-containing isoform is 66-bp shorter than the exon 8a-containing isoform. The primers used were; 5′-[…]-3′ (SEQ ID NO:2) and 5′-[…]-3′ (SEQ ID NO:3) with the following conditions; 96° C. for 2 min followed by 45 cycles at 96° C.-30 s, 60° C.-30 s and 72° C.-30 s. The PCR mix consisted of DNA: 200 ng, MgCl2 0.25 mM, Primer each […], Taq polymerase 1 unit and dH2O up to 25 μl. Control plasmid concentration: VEGF165a 500 ng and VEGF165b 1 μg. PCR products were run on 3% agarose gels containing 0.5 μg/ml ethidium bromide.\nRNA was isolated and reverse transcribed as described above. Quantitative PCR (qPCR) was performed with a LightCycler 480 (Roche) q-PCR machine. The qPCR mix included PCR-grade dH2O 3 PCR Primer (1 μM) 2 μl. […]\nVEGF-A alternative splicing was further measured in retinal pigmented epithelial cells by qRT-PCR and conventional PCR."}, "neovascular AMD": {"system": "neovascular AMD", "conditions": "treated monthly, 0.5 mg, at one year; cited from earlier work"}}, "data": [{"molecule": "O=C(Nc1cc(C(F)(F)F)ccc1N1CCN(Cc2cocn2)CC1)c1ccc(-c2ccncc2)o1", "note": "[Compound 17, N-(2-(4-(oxazol-4-ylmethyl)piperazin-1-yl)-5-(trifluoromethyl)phenyl)-5-(pyridin-4-yl)furan-2-carboxamide]", "values": [{"measurement": "anti-angiogenic activity on lesion size / efficacy compared with reference compound", "setting": "[1]; listed as N-(2-(4-(oxazol-4-ylmethyl)piperazin-1-yl)-5-(trifluoromethyl)phenyl)-5-(pyridin)", "value": "same efficacy"}, {"measurement": "anti-angiogenic activity on lesion size / efficacy compared with reference compound", "setting": "[1]; listed as compound 17", "value": "same anti-angiogenic activity on lesion size and the same efficacy as reference compounds"}, {"measurement": "VEGF165b protein", "setting": "[2]", "value": "increase in VEGF165b"}, {"measurement": "VEGF165 protein", "setting": "[2]", "value": "not VEGF165 protein"}]}, {"molecule": "bevicizumab (Avastin): an anti-VEGF antibody from which Lucentis was derived", "values": [{"measurement": "binding potency to VEGF165b versus VEGF165", "setting": "VEGF165b and VEGF165", "value": "equal potency"}]}, {"molecule": "O=C(Nc1cc(C(F)(F)F)ccc1N1CCN(Cc2cc[nH]n2)CC1)c1ccc(C2CCOCC2)o1", "note": "[Compound 14, N-(2-(4-((1H-pyrazol-3-yl)methyl)piperazin-1-yl)-5-(trifluoromethyl)-phenyl)-5-(tetrahydro-2H-pyran-4-yl)furan-2-carboxamide]", "values": [{"measurement": "VEGF-A165a/VEGF165b mRNA isoform expression", "setting": "[3]; endothelial cells (figure legend)", "value": "decrease"}, {"measurement": "levels of VEGF165b relative to VEGF165 RNA", "setting": "[3]; primary RPE cells and ARPE-19 cells", "value": "switched the levels of VEGF165b relative to VEGF165 RNA by a decrease in VEGF165"}]}, {"molecule": "B1", "values": [{"measurement": "patients who maintained visual acuity (loss of <15 letters)", "setting": "neovascular AMD", "value": "approximately 95%"}, {"measurement": "patients with improved vision (gain of ≥15 letters)", "setting": "neovascular AMD", "value": "≤ 40", "unit": "%"}]}]}
